# Experimental data published in patent US9315546B2, “Growth hormone secretatogue receptor antagonists and uses thereof” (The Administrators of the Tulane Educational Fund, priority 2010, dated 2016).
# Several values for one entry are separate records, joined by “and”; a condition that tells them apart may be missing. Equal entries are not always repeated. Where no end group is shown, it is not given here. [ ]: non-standard residue; d: D form.
# Target: Ghrelin/GHRP/GHS Receptor (Rattus norvegicus, UniProt O08725)
# Sequence (O08725 whole entry): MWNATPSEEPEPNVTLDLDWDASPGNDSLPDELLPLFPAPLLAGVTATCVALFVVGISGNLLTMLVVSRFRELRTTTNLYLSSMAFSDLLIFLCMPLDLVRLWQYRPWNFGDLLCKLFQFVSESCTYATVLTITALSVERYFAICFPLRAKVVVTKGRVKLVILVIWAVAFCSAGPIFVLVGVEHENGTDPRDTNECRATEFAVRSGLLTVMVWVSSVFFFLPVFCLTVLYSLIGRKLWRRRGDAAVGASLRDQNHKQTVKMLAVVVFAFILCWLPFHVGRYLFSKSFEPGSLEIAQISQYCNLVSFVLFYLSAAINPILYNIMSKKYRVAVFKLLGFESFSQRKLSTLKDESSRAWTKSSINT
# Assay: GH release from cell culture of pituitary cells
# Type: cell-based
# Set-up: After dispersion, the cells were collected by centrifugation, wash with DMEM and placed into culture well; endogenous in cells; host or cells: dispersed primary rat pituitary cells, 4 days in culture
# Conditions: for Unstimulated Basal GH release: Table 8
# Protocol: In vitro GH Release-Female rats of the CD-1 strain were housed in a constant temperature room at 24° C. with 14 h light and 10 h darkness. The rats were fed Purina Rat chow and water at libitum. All studies were started between 0800-1000 hours. Pituitaries of mature female Sprague Dawley rats were rapidly removed after decapitation, neurointermediate lobe discarded and then placed in a pH 7.4 buffer. The pituitaries were cut into ˜3-mm pieces and then transferred to a flask containing HEPS buffer with trypsin and incubated at 37° C. Cells were triturated several times during this period. After dispersion, the cells were collected by centrifugation, wash with DMEM and placed into culture well. Cell cultures were maintained for 4 days at 37° with 8% CO2 added to the incubator atmosphere. After 4 days in culture, cells were washed with lactated Ringer's solution adjusted to pH 7.2-7.4 and then vehicle, peptide alone or peptide plus stimulator was added to media. Incubation time was 60-120 minutes after which media was removed from each well for GH determination. The GH RIA reagents were distributed by the NIH. Control data was collected from cell cultures treated with only the corresponding vehicle in the absence of peptide or stimulator. Control stimulated data was collected from cell cultures treated with stimulator alone in the absence of any peptide.
# [1] = Table 11, compound 10 μg/ml + stimulator 1 ng/ml
# [2] = Table 11, compound 30 μg/ml + stimulator 1 ng/ml
# [3] = Table 11, compound alone 10 μg/ml
# [4] = Table 11, compound alone 30 μg/ml
# [5] = Table 10, compound 10 μg/ml + stimulator 1 ng/ml
# [6] = Table 10, compound 30 μg/ml + stimulator 1 ng/ml
# [7] = Table 10, compound alone 10 μg/ml
# [8] = Table 10, compound alone 30 μg/ml
# [9] = Table 10, compound 1 μg/ml + stimulator 1 ng/ml
# [10] = Table 10, compound 3 μg/ml + stimulator 1 ng/ml
# [11] = Table 10, compound alone 1 μg/ml
# [12] = Table 10, compound alone 3 μg/ml
compound,measurement,setting,value
"1,3-diaminobutyricamide-DβNal-4-phenylpiperidinamide",Stimulated GH release (P + S),[1],644 ± 33 ng/mL
same,Stimulated GH release (P + S),[2],529 ± 20 ng/mL
same,Unstimulated GH release,[3],794 ± 34 ng/mL
same,Unstimulated GH release,[4],504 ± 20 ng/mL
2-[acetylester]-3-(p-m-methoxyl phenyl) piperidinamide]-naphthalene carboxamide,Stimulated GH release (P + S),[5],480 ± 9 ng/mL
same,Stimulated GH release (P + S),[6],223 ± 22 ng/mL
same,Unstimulated GH release,[7],373 ± 2 ng/mL
same,Unstimulated GH release,[8],176 ± 11 ng/mL
"N[C@H](Cc1c[nH]c2ccccc12)C(=O)N1CCC(c2ccccc2)CC1 [1-DTrp-4-phenylpiperdinamide, DTrp-4-phenylpiperdinamide]",Stimulated GH release (P + S),[9],1085 ± 1 ng/mL
same,Stimulated GH release (P + S),[10],917 ± 4 ng/mL
same,Stimulated GH release (P + S),[5],344 ± 6 ng/mL
same,Stimulated GH release (P + S),[6],486 ± 29 ng/mL
same,Unstimulated GH release,[11],815 ± 26 ng/mL
same,Unstimulated GH release,[12],390 ± 35 ng/mL
same,Unstimulated GH release,[7],520 ± 61 ng/mL
same,Unstimulated GH release,[8],577 ± 24 ng/mL
"COc1ccccc1N1CCN(C(=O)c2cc3ccccc3cc2C(=O)N2CCN(c3ccccc3OC)CC2)CC1 [2,3-di[N-(2-methoxylphenyl)piperazyl-naphthalenecarboxylamide]",Stimulated GH release (P + S),[9],654 ± 18 ng/mL
same,Stimulated GH release (P + S),[10],442 ± 4 ng/mL
same,Stimulated GH release (P + S),[5],537 ± 28 ng/mL and 648 ± 16 ng/mL
same,Stimulated GH release (P + S),[6],309 ± 46 ng/mL
same,Unstimulated GH release,[11],338 ± 3 ng/mL
same,Unstimulated GH release,[12],204 ± 10 ng/mL
same,Unstimulated GH release,[7],262 ± 4 ng/mL and 136 ± 11 ng/mL
same,Unstimulated GH release,[8],118 ± 8 ng/mL
CCOC(=O)c1cc2ccccc2cc1C(=O)Nc1cccc(OC)c1 [2-[ethylester-3-m-methoxylphenylamide] naphthalene carboxylamide],Stimulated GH release (P + S),[1],670 ± 32 ng/mL
same,Stimulated GH release (P + S),[2],458 ± 15 ng/mL
same,Unstimulated GH release,[3],698 ± 18 ng/mL
same,Unstimulated GH release,[4],552 ± 20 ng/mL
COC(=O)c1cc2ccccc2cc1C(=O)Nc1ccc(C)cc1 [2-[methylester]-3-[p-methylphenylamidenaphthalenecarboxylamide],Stimulated GH release (P + S),[1],1149 ± 33 ng/mL
same,Stimulated GH release (P + S),[2],886 ± 29 ng/mL
same,Unstimulated GH release,[3],754 ± 32 ng/mL
same,Unstimulated GH release,[4],498 ± 26 ng/mL
"C=C(C)CON=C(c1ccccc1)c1ccccc1 [5-O-(2-methylallyl) benzophonone oxime, O-(2-methylallyl) benzophonone oxime]",Stimulated GH release (P + S),[5],1281 ± 58 ng/mL
same,Stimulated GH release (P + S),[6],699 ± 53 ng/mL
same,Unstimulated GH release,[7],929 ± 28 ng/mL
same,Unstimulated GH release,[8],616 ± 23 ng/mL
"N[C@H](COCc1ccccc1)C(=O)N1CCN(c2ccccc2)CC1 [6-D Ser(BZL)-N′-phenyl-N-piperazinamide, D Ser(BZL)-N′-phenyl-N-piperazinamide]",Stimulated GH release (P + S),[5],719 ± 26 ng/mL
same,Stimulated GH release (P + S),[6],435 ± 0 ng/mL
same,Unstimulated GH release,[7],585 ± 10 ng/mL
same,Unstimulated GH release,[8],368 ± 2 ng/mL
CC(C)(N)C(=O)N[C@H](COCc1ccccc1)C(=O)N1CCN(c2ccccc2)CC1 [αAibDSer(BZL)-N′-phenyl-N-piperazinamide],Stimulated GH release (P + S),[5],878 ± 30 ng/mL
same,Stimulated GH release (P + S),[6],510 ± 15 ng/mL
same,Unstimulated GH release,[7],777 ± 34 ng/mL
same,Unstimulated GH release,[8],499 ± 18 ng/mL
COc1ccccc1C1CCN(C(=O)[C@@H](Cc2c[nH]c3ccccc23)NC(=O)C(C)(C)N)CC1 [αAibDTrp-p-(α-methoxylphenyl) piperidinamide],Stimulated GH release (P + S),[1],441 ± 21 ng/mL
same,Stimulated GH release (P + S),[2],384 ± 16 ng/mL
same,Unstimulated GH release,[3],365 ± 2 ng/mL
same,Unstimulated GH release,[4],375 ± 30 ng/mL
Ac-DβNal-DTrp-NH2 [2-Ac-DβNal-DTrp-NH2],Unstimulated Basal GH release,peptide 3 μg/ml,1264 ± 2 ng/mL
same,Unstimulated Basal GH release,peptide 10 μg/ml,980 ± 72 ng/mL
same,Unstimulated Basal GH release,peptide 30 μg/ml,699 ± 7 ng/mL
Ac-DβNal-PlcLys-ILys-DPhe-NH2 [11-Ac-DβNal-PlcLys-ILys-DPhe-NH2],Unstimulated Basal GH release,peptide 3 μg/ml,1013 ± 207 ng/mL
same,Unstimulated Basal GH release,peptide 10 μg/ml,976 ± 13 ng/mL
same,Unstimulated Basal GH release,peptide 30 μg/ml,928 ± 16 ng/mL
Ac-[dK]Y[dW][dW]F-NH2 [9-Ac-DLys-Tyr-DTrp-DTrp-Phe-NH2],Unstimulated Basal GH release,peptide 3 μg/ml,105 ± 8 ng/mL
same,Unstimulated Basal GH release,peptide 10 μg/ml,950 ± 91 ng/mL
same,Unstimulated Basal GH release,peptide 30 μg/ml,782 ± 56 ng/mL
same,Unstimulated Basal GH release,peptide 100 μg/ml,756 ± 1 ng/mL
"Arg-DTrp-Leu-Tyr-Trp-Pro(cyclic Arg-Pro) (WLYWP; HELM PEPTIDE1{R.[dW].L.Y.W.P}$PEPTIDE1,PEPTIDE1,1:R1-6:R2$$$V2.0; SMILES CC(C)C[C@@H]1NC(=O)[C@@H](Cc2c[nH]c3ccccc23)NC(=O)[C@H](CCCNC(=N)N)NC(=O)[C@@H]2CCCN2C(=O)[C@H](Cc2c[nH]c3ccccc23)NC(=O)[C@H](Cc2ccc(O)cc2)NC1=O)",Unstimulated Basal GH release,peptide 3 μg/ml,1480 ± 19 ng/mL
same,Unstimulated Basal GH release,peptide 10 μg/ml,802 ± 26 ng/mL
same,Unstimulated Basal GH release,peptide 30 μg/ml,601 ± 16 ng/mL
same,Unstimulated Basal GH release,peptide 100 μg/ml,509 ± 49 ng/mL
Benzamide-DSerDLysTrp-p-phenylpiperidinamide,Stimulated GH release (P + S),[10],432 ± 25 ng/mL
same,Stimulated GH release (P + S),[5],353 ± 10 ng/mL
same,Unstimulated GH release,[12],393 ± 54 ng/mL
same,Unstimulated GH release,[7],369 ± 30 ng/mL
DAla-DcyclohexylAla-Ala-Ala-Phe-DPhe-Nle-NH2,Unstimulated Basal GH release,peptide 1 μg/ml,286 ± 75 ng/mL
same,Unstimulated Basal GH release,peptide 3 μg/ml,177 ± 44 ng/mL
same,Unstimulated Basal GH release,peptide 10 μg/ml,271 ± 38 ng/mL
same,Unstimulated Basal GH release,peptide 30 μg/ml,376 ± 28 ng/mL
DPal-Phe-DTrp-Phe-Met-NH2 [12-DPal-Phe-DTrp-Phe-Met-NH2],Unstimulated Basal GH release,peptide 3 μg/ml,1081 ± 50 ng/mL
same,Unstimulated Basal GH release,peptide 10 μg/ml,997 ± 30 ng/mL
same,Unstimulated Basal GH release,peptide 30 μg/ml,425 ± 25 ng/mL
DPal-Trp-DPhe-Phe-Met-NH2 [14-DPal-Trp-DPhe-Phe-Met-NH2],Unstimulated Basal GH release,peptide 3 μg/ml,1105 ± 18 ng/mL
same,Unstimulated Basal GH release,peptide 10 μg/ml,891 ± 4 ng/mL
same,Unstimulated Basal GH release,peptide 30 μg/ml,567 ± 24 ng/mL
DPhe-Ala-Phe-DPal-NH2 [6-DPhe-Ala-Phe-DPal-NH2],Unstimulated Basal GH release,peptide 3 μg/ml,170 ± 19 ng/mL
same,Unstimulated Basal GH release,peptide 10 μg/ml,181 ± 31 ng/mL
same,Unstimulated Basal GH release,peptide 30 μg/ml,161 ± 20 ng/mL
same,Unstimulated Basal GH release,peptide 100 μg/ml,146 ± 21 ng/mL
H[dW][dW]K-NH2 [1-His-DTrp-DTrp-Lys-NH2],Unstimulated Basal GH release,peptide 3 μg/ml,1124 ± 37 ng/mL
same,Unstimulated Basal GH release,peptide 10 μg/ml,749 ± 10 ng/mL
same,Unstimulated Basal GH release,peptide 30 μg/ml,615 ± 41 ng/mL
Ser(Bzl)Lys(Ac)DTrp-p-phenylpiperidinamide,Stimulated GH release (P + S),[5],571 ± 32 ng/mL
same,Stimulated GH release (P + S),[6],399 ± 24 ng/mL
same,Unstimulated GH release,[7],388 ± 41 ng/mL
same,Unstimulated GH release,[8],273 ± 39 ng/mL
[dF]AF[dF]K-NH2 [7-DPhe-Ala-Phe-DPhe-Lys-NH2],Unstimulated Basal GH release,peptide 10 μg/ml,267 ± 27 ng/mL
same,Unstimulated Basal GH release,peptide 30 μg/ml,276 ± 65 ng/mL
same,Unstimulated Basal GH release,peptide 100 μg/ml,360 ± 84 ng/mL
[dF]W[dF]FM-NH2 [13-DPhe-Trp-DPhe-Phe-Met-NH2],Unstimulated Basal GH release,peptide 3 μg/ml,1146 ± 34 ng/mL
same,Unstimulated Basal GH release,peptide 10 μg/ml,1086 ± 32 ng/mL
same,Unstimulated Basal GH release,peptide 30 μg/ml,871 ± 89 ng/mL
[dK]Y[dW][dW]F-NH2 [8-DLys-Tyr-DTrp-DTrp-Phe-NH2],Unstimulated Basal GH release,peptide 1 μg/ml,1451 ± 19 ng/mL
same,Unstimulated Basal GH release,peptide 3 μg/ml,1175 ± 77 ng/mL
same,Unstimulated Basal GH release,peptide 10 μg/ml,1129 ± 6 ng/mL
same,Unstimulated Basal GH release,peptide 30 μg/ml,744 ± 44 ng/mL
p-phenyl(piperidinamide-DTrpLysSer(BZL)-acetylamide,Stimulated GH release (P + S),"Table 11, compound 1 μg/ml + stimulator 1 ng/ml",680 ± 13 ng/mL
same,Stimulated GH release (P + S),"Table 11, compound 3 μg/ml + stimulator 1 ng/ml",489 ± 41 ng/mL
same,Stimulated GH release (P + S),[1],245 ± 16 ng/mL
αAib-DTrp-DAla-cyclohexylAla-NH2 [4-αAib-DTrp-DAla-cyclohexylAla-NH2],Unstimulated Basal GH release,peptide 1 μg/ml,1086 ± 52 ng/mL
same,Unstimulated Basal GH release,peptide 3 μg/ml,1103 ± 18 ng/mL
same,Unstimulated Basal GH release,peptide 10 μg/ml,994 ± 22 ng/mL
same,Unstimulated Basal GH release,peptide 30 μg/ml,704 ± 115 ng/mL
αAib-DTrp-DcyclohexylAla-NH2 [3-αAib-DTrp-DcyclohexylAla-NH2],Unstimulated Basal GH release,peptide 1 μg/ml,980 ± 44 ng/mL
same,Unstimulated Basal GH release,peptide 3 μg/ml,826 ± 32 ng/mL
same,Unstimulated Basal GH release,peptide 10 μg/ml,602 ± 53 ng/mL
same,Unstimulated Basal GH release,peptide 30 μg/ml,492 ± 11 ng/mL
γAbuDTrp-p-[m-methoxyphenyl] piperidinamide,Stimulated GH release (P + S),[1],526 ± 27 ng/mL
same,Stimulated GH release (P + S),[2],428 ± 22 ng/mL
same,Unstimulated GH release,[3],557 ± 19 ng/mL
same,Unstimulated GH release,[4],378 ± 18 ng/mL
